Test results published in patent US20090298820A1, “3-SUBSTITUTED-1H-PYRROLO[2,3-B]PYRIDINE AND 3-SUBSTITUTED-1H-PYRROLO[3,2-B]PYRIDINE COMPOUNDS, THEIR USE AS MTOR KINASE AND PI3 KINASE INHIBITORS, AND THEIR SYNTHESES” (Wyeth, priority 2008, published 2009).
pIC50: −log10 of the molar value.

Key:
PI3Kα = PI3Kα (Homo sapiens, UniProt P42336); experiment: PI3K-alpha fluorescence polarization assay; format: biochemical; conditions: read-out: PI3Kα Median IC50
PI3Kγ = PI3Kγ (Homo sapiens, UniProt P48736); experiment: PI3K-gamma fluorescence polarization assay; format: biochemical; conditions: read-out: PI3Kγ Median IC50
mTOR = mTOR (Homo sapiens, UniProt P42345); experiment: mTOR enzyme assay (DELFIA format, His6-S6K substrate); format: biochemical; conditions: read-out: mTOR Kinase Median IC50

Chain of PI3Kα (P42336 whole entry, species assumed): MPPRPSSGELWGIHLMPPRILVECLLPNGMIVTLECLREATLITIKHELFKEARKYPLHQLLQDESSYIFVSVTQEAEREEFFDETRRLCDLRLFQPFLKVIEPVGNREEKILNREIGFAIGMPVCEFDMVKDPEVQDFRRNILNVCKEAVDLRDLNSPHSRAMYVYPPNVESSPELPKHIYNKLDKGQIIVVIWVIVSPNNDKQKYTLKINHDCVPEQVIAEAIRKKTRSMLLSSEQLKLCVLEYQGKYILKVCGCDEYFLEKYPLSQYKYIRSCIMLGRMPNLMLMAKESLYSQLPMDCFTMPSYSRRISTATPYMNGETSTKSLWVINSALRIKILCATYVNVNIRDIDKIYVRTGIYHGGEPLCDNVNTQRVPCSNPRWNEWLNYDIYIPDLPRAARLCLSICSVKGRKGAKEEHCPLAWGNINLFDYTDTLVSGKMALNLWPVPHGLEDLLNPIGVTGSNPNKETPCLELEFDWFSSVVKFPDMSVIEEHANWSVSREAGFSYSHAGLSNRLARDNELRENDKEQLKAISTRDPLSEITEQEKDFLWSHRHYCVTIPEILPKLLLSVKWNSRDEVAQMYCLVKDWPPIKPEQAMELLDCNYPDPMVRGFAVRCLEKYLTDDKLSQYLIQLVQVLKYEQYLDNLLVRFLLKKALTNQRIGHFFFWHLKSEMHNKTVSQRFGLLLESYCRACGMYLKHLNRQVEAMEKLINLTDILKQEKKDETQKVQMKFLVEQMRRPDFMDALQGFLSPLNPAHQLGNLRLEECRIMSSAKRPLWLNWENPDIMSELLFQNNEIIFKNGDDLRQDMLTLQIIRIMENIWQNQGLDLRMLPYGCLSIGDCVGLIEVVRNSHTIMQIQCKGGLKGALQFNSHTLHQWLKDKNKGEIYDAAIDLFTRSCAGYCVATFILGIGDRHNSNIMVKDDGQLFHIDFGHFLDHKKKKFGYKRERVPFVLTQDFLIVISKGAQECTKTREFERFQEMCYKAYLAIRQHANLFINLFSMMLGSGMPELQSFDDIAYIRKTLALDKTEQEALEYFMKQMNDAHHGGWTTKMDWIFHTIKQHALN
Chain of PI3Kα (P27986 whole entry partner, species assumed): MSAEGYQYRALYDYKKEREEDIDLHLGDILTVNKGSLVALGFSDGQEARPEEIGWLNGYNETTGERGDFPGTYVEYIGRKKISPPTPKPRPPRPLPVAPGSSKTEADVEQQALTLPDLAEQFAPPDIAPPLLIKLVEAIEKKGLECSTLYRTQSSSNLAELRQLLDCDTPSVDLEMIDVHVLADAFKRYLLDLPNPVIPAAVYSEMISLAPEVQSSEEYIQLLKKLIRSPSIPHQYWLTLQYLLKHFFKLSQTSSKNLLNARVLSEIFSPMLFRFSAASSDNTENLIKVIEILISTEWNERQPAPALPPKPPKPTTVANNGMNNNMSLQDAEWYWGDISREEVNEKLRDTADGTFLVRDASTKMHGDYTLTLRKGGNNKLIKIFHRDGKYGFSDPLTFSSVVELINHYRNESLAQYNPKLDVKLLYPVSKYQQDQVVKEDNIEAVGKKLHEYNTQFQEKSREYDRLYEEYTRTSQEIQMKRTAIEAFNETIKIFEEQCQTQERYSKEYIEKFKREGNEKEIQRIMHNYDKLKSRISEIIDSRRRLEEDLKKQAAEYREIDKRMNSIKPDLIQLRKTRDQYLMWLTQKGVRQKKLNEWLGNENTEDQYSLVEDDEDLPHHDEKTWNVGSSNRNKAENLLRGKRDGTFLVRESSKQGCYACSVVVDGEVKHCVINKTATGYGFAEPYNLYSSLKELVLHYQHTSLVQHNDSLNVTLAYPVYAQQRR
Chain of PI3Kγ (P48736 whole entry, species assumed): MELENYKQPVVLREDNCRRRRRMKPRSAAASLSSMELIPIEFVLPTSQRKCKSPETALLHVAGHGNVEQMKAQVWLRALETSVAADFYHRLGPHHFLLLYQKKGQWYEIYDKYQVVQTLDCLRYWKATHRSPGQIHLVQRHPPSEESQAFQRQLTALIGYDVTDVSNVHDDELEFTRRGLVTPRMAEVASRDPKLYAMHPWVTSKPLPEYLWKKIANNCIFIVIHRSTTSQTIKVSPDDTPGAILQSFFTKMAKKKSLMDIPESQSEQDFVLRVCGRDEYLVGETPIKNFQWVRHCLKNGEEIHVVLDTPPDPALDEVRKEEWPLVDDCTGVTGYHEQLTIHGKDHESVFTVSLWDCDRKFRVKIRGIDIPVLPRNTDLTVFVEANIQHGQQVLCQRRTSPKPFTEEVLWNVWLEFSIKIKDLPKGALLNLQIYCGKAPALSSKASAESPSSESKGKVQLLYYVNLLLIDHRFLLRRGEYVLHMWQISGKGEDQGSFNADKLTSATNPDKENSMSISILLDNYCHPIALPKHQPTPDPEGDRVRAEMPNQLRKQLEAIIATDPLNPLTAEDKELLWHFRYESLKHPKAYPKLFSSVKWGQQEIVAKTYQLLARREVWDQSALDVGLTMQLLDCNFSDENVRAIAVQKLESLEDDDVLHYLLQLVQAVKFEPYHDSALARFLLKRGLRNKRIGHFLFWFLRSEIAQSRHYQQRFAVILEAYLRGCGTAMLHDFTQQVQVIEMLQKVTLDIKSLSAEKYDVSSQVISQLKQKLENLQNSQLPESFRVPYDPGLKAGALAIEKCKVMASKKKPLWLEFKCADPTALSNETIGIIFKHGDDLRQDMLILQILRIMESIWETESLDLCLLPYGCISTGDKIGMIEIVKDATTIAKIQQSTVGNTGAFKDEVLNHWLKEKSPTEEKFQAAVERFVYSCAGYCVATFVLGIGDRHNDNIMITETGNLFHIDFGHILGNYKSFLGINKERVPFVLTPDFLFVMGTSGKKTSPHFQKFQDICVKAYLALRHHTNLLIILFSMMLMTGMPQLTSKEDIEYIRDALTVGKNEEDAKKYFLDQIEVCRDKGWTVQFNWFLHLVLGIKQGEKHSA

pIC50 (PI3Kα)	pIC50 (PI3Kγ)	pIC50 (mTOR)	melting point	Compound
7.33	6.78	7.85	239 to 242 °C	CN1CCN(C2CCN(c3ccnc4c3c(/C=C3\Oc5cccc(O)c5C3=O)cn4C)CC2)CC1 [Compound 129, (2Z)-4-hydroxy-2-({1-methyl-4-[4-(4-methylpiperazin-1-yl)piperidin-1-yl]-1H-pyrrolo[2,3-b]pyridin-3-yl}methylene)-1-benzofuran-3(2H)-one]
5.86	5.97	7.16	332 to 335 °C	CC(=O)Nc1ccc2c(c1)C(=O)/C(=C/c1cn(C)c3nccc(-c4ccccc4)c13)O2 [Compound 154, N-{(2Z)-2-[(1-methyl-4-phenyl-1H-pyrrolo[2,3-b]pyridin-3-yl)methylidene]-3-oxo-2,3-dihydro-1-benzofuran-5-yl}acetamide]
5.21	< 5.00	7.28	262 to 268 °C	Cn1cc(/C=C2\Oc3cccc(N)c3C2=O)c2c(-c3ccccc3)ccnc21 [Compound 108, (2Z)-4-amino-2-[(1-methyl-4-phenyl-1H-pyrrolo[2,3-b]pyridin-3-yl)methylene]-1-benzofuran-3(2H)-one]
6.53	6.60	7.71	257 to 259 °C	Cn1cc(/C=C2\Oc3ccc(NC(=O)Nc4ccncc4)cc3C2=O)c2c(N3CC4CCC(C3)O4)ccnc21 [Compound 198, 1-[(2Z)-2-{[1-methyl-4-(8-oxa-3-azabicyclo[3.2.1]oct-3-yl)-1H-pyrrolo[2,3-b]pyridin-3-yl]methylidene}-3-oxo-2,3-dihydro-1-benzofuran-5-yl]-3-pyridin-4-ylurea]
7.48	7.08	8.77	175 °C	CNC(=O)c1ccc(-c2ccnc3c2c(/C=C2\Oc4cccc(O)c4C2=O)cn3C)cc1 [Compound 132, 4-{3-[(Z)-(4-hydroxy-3-oxo-1-benzofuran-2(3H)-ylidene)methyl]-1-methyl-1H-pyrrolo[2,3-b]pyridin-4-yl}-N-methylbenzamide]
7.41	7.03	9.15	232 to 242 °C	Cn1cc(/C=C2\Oc3cccc(O)c3C2=O)c2c(N3CCC(C(=O)NCCO)CC3)ccnc21 [Compound 148, N-(2-hydroxyethyl)-1-{3-[(Z)-(4-hydroxy-3-oxo-1-benzofuran-2(3H)-ylidene)methyl]-1-methyl-1H-pyrrolo[2,3-b]pyridin-4-yl}piperidine-4-carboxamide]
6.56	6.14	7.30	242 to 247 °C (dec.)	CNC(=O)Nc1ccc2c(c1)C(=O)/C(=C/c1cn(C)c3nccc(N4CC5CC4CO5)c13)O2 (stereo not shown) [Compound 284, 1-methyl-3-[(2Z)-2-{[1-methyl-4-(2-oxa-5-azabicyclo[2.2.1]hept-5-yl)-1H-pyrrolo[2,3-b]pyridin-3-yl]methylidene}-3-oxo-2,3-dihydro-1-benzofuran-5-yl]urea]
5.85	5.81	7.52	282 to 285 °C	COCCN(C)C(=O)C1CCN(c2ccnc3c2c(/C=C2\Oc4ccc(NC(=O)Nc5cccnc5)cc4C2=O)cn3C)CC1 [Compound 246, N-(2-methoxyethyl)-N-methyl-1-{1-methyl-3-[(Z)-{3-oxo-5-[(pyridin-3-ylcarbamoyl)amino]-1-benzofuran-2(3H)-ylidene}methyl]-1H-pyrrolo[2,3-b]pyridin-4-yl}piperidine-4-carboxamide]
< 5.00	< 5.00	7.74	246 to 251 °C	Cn1cc(/C=C2\Oc3ccc(NC(=O)Nc4cccnc4)cc3C2=O)c2c(N3CCC(C(=O)N4CCOCC4)CC3)ccnc21 [Compound 173, 1-[(2Z)-2-({1-methyl-4-[4-(morpholin-4-ylcarbonyl)piperidin-1-yl]-1H-pyrrolo[2,3-b]pyridin-3-yl}methylidene)-3-oxo-2,3-dihydro-1-benzofuran-5-yl]-3-pyridin-3-ylurea]
7.14	6.67	8.85	222 to 226 °C	COCC1CN(C(=O)c2ccc(-c3ccnc4c3c(/C=C3\Oc5cccc(O)c5C3=O)cn4C)cc2)CCO1 (stereo not shown) [Compound 310, (2Z)-4-hydroxy-2-{[4-(4-{[2-(methoxymethyl)morpholin-4-yl]carbonyl}phenyl)-1-methyl-1H-pyrrolo[2,3-b]pyridin-3-yl]methylidene}-1-benzofuran-3(2H)-one]
5.97	5.66	6.98	234 to 241 °C	Cn1cc(/C=C2\Oc3ccc(NC(=O)NCCCCl)cc3C2=O)c2c(N3CC4CCC(C3)O4)ccnc21 [Compound 240, 1-(3-chloropropyl)-3-[(2Z)-2-{[1-methyl-4-(8-oxa-3-azabicyclo[3.2.1]oct-3-yl)-1H-pyrrolo[2,3-b]pyridin-3-yl]methylene}-3-oxo-2,3-dihydro-1-benzofuran-5-yl]urea]
7.49	7.21	8.85	297 to 300 °C	COc1cccc(-c2ccnc3c2c(/C=C2\Oc4cc(O)cc(O)c4C2=O)cn3C)c1 [Compound 66, (2Z)-4,6-dihydroxy-2-{[4-(3-methoxyphenyl)-1-methyl-1H-pyrrolo[2,3-b]pyridin-3-yl]methylene}-1-benzofuran-3(2H)-one]
6.41	6.17	7.91	262 to 265 °C	Cn1cc(/C=C2\Oc3cccc(O)c3C2=O)c2c(-c3cccc(C(F)(F)F)c3)ccnc21 [Compound 107, (2Z)-4-hydroxy-2-({1-methyl-4-[3-(trifluoromethyl)phenyl]-1H-pyrrolo[2,3-b]pyridin-3-yl}methylene)-1-benzofuran-3(2H)-one]
7.15	6.61	8.54	223 to 225 °C	Cn1cc(/C=C2\Oc3cccc(O)c3C2=O)c2c(N3CCN(C(=O)N4CCCC4)CC3)ccnc21 [Compound 104, (2Z)-4-hydroxy-2-({1-methyl-4-[4-(pyrrolidin-1-ylcarbonyl)piperazin-1-yl]-1H-pyrrolo[2,3-b]pyridin-3-yl}methylene)-1-benzofuran-3(2H)-one]
7.20	7.30	8.85	358 to 361 °C	Cn1cc(/C=C2\Oc3cccc(O)c3C2=O)c2c(N3CCC(C(=O)N4CCOCC4)CC3)ccnc21 [Compound 150, (2Z)-4-hydroxy-2-({1-methyl-4-[4-(morpholin-4-ylcarbonyl)piperidin-1-yl]-1H-pyrrolo[2,3-b]pyridin-3-yl}methylidene)-1-benzofuran-3(2H)-one]
6.89	< 5.00	7.65	352 to 354 °C (dec.)	Cn1cc(/C=C2\Oc3ccc(O)cc3C2=O)c2c(-c3ccccc3)ccnc21 [Compound 42, (2Z)-5-hydroxy-2-[(1-methyl-4-phenyl-1H-pyrrolo[2,3-b]pyridin-3-yl)methylene]-1-benzofuran-3(2H)-one]
5.80	5.85	8.08	187 to 189 °C	CN(Cc1ccccn1)C(=O)C1CCN(c2ccnc3c2c(/C=C2\Oc4ccc(NC(=O)Nc5cccnc5)cc4C2=O)cn3C)CC1 [Compound 257, N-methyl-1-{1-methyl-3-[(Z)-{3-oxo-5-[(pyridin-3-ylcarbamoyl)amino]-1-benzofuran-2(3H)-ylidene}methyl]-1H-pyrrolo[2,3-b]pyridin-4-yl}-N-(pyridin-2-ylmethyl)piperidine-4-carboxamide]
6.54	6.10	7.70	263 to 268 °C	CN(C)CCCN1CCN(c2ccnc3c2c(/C=C2\Oc4cccc(O)c4C2=O)cn3C)CC1 [Compound 118, (2Z)-2-[(4-{4-[3-(dimethylamino)propyl]piperazin-1-yl}-1-methyl-1H-pyrrolo[2,3-b]pyridin-3-yl)methylene]-4-hydroxy-1-benzofuran-3(2H)-one]

Compound	pIC50 (PI3Kα)	pIC50 (PI3Kγ)	pIC50 (mTOR)	melting point
Cn1cc(/C=C2\Oc3ccc(NC(=O)Nc4cccnc4)cc3C2=O)c2c(N3C4CCCC3COC4)ccnc21 [Compound 276, 1-[(2Z)-2-{[1-methyl-4-(3-oxa-9-azabicyclo[3.3.1]non-9-yl)-1H-pyrrolo[2,3-b]pyridin-3-yl]methylidene}-3-oxo-2,3-dihydro-1-benzofuran-5-yl]-3-pyridin-3-ylurea]	5.65	5.95	7.50	240 to 245 °C (dec.)
CN(C)C(=O)c1ccc(-c2ccnc3c2c(/C=C2\Oc4cccc(O)c4C2=O)cn3C)cc1 [Compound 111, 4-{3-[(Z)-(4-hydroxy-3-oxo-1-benzofuran-2(3H)-ylidene)methyl]-1-methyl-1H-pyrrolo[2,3-b]pyridin-4-yl}-N,N-dimethylbenzamide]	7.44	7.18	9.30	212 to 218 °C
CN(C)C(=O)C1CCN(c2ccnc3c2c(/C=C2\Oc4cccc(O)c4C2=O)cn3C)CC1 [Compound 145, 1-{3-[(Z)-(4-hydroxy-3-oxo-1-benzofuran-2(3H)-ylidene)methyl]-1-methyl-1H-pyrrolo[2,3-b]pyridin-4-yl}-N,N-dimethylpiperidine-4-carboxamide]	7.42	7.13	9.22	185 to 195 °C
CNC(=O)Nc1ccc2c(c1)C(=O)/C(=C/c1cn(C)c3nccc(N4C5CCC4COC5)c13)O2 [Compound 281, 1-methyl-3-[(2Z)-2-{[1-methyl-4-(3-oxa-8-azabicyclo[3.2.1]oct-8-yl)-1H-pyrrolo[2,3-b]pyridin-3-yl]methylidene}-3-oxo-2,3-dihydro-1-benzofuran-5-yl]urea]	6.98	5.77	7.51	226 to 232 °C (dec.)
